Test results taken from PMC3224040 (ACS medicinal chemistry letters, 2011).
Where two headings read alike, the source gives them in different places.

Experiments:
D3 receptor [1] = conditions: cited from earlier work; for Selectivity for D3 over D2: D3 antagonists; for Selectivity over the D2 receptor: D3 agonists, in vitro binding data
Aqueous solubility = format: physicochemical; conditions: aqueous medium (not further specified)
dopamine D3 receptor = dopamine D3 receptor (Rattus norvegicus, UniProt P19020); experiment: Yawning assay in rats; conditions: for High doses at which D2 agonist effects may be observed: antagonist interaction study in yawning assay
[2] = cited from earlier work
human D1 receptor = human D1 receptor (Homo sapiens, UniProt P21728); experiment: Binding to cloned human D1 receptor; conditions: at 10,000 nM
D2 receptor = D2 receptor (Rattus norvegicus, UniProt P61169); conditions: for Decrease in core body temperature: pretreatment of L-741,626 at 1 mg/kg; for Dose at onset of modest D2 agonist activity: yawning and hypothermia data
D3 receptor [3] = molecular target: D3 receptor (Rattus norvegicus, UniProt P19020); conditions: rat brain binding, ratio of Ki values
Sequence of D3 receptor (Rattus norvegicus, UniProt P19020) (P19020 whole entry): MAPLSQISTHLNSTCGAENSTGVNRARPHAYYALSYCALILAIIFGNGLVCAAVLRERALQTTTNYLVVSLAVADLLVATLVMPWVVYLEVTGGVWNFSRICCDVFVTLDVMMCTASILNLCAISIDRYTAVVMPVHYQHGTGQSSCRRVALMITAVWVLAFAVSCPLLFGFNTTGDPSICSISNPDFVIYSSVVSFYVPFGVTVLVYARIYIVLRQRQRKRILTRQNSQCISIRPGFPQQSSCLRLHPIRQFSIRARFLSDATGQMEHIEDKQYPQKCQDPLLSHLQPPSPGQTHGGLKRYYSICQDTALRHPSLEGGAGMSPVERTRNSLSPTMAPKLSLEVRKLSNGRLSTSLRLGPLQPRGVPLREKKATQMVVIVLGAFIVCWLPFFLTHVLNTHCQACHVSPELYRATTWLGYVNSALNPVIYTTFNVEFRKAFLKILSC

Sequence of D2 receptor (P61169 whole entry): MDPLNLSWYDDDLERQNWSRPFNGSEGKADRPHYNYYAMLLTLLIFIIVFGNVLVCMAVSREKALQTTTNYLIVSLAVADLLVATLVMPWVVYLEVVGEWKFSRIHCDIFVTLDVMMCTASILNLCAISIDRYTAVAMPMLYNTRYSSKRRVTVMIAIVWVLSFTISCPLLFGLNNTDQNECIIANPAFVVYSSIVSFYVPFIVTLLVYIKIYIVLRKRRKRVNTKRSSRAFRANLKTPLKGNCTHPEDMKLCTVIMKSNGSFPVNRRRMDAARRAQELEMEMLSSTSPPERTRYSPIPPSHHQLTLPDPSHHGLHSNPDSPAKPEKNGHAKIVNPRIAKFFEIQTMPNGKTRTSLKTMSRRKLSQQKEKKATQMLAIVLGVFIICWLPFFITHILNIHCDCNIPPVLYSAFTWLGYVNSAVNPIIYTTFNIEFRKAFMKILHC
Sequence of dopamine D3 receptor (P19020 whole entry): as the sequence (P19020 whole entry) above
Sequence of human D1 receptor (P21728 whole entry): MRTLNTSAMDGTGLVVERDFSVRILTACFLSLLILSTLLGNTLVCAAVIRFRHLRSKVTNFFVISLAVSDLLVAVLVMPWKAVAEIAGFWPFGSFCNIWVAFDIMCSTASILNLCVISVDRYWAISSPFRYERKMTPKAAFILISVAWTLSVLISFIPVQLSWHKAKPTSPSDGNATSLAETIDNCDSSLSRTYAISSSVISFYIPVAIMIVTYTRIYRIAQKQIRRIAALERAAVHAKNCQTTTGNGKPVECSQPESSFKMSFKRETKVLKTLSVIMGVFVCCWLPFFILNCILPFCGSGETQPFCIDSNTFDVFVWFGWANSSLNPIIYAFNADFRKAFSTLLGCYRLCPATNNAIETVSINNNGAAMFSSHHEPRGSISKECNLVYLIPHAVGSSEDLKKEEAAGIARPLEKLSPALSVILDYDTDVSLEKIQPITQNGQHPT

Question: With `O=C(NCCCCN1CCN(c2cccc(Cl)c2Cl)CC1)c1ccc2c(c1)Cc1ccccc1-2` [Compound 6] as the compound, how does the “Selectivity for D3 over D2” value (D3 receptor [1]) read?
Answer: The value was ≤ 100 fold.

Question: Which solubility (Aqueous solubility) does the source give for `CCCN(CC[C@]1(O)C[C@@H](NC(=O)c2ccc3ccccc3c2)C1)[C@H]1CCc2nc(N)sc2C1` [Compound 16] here?
Answer: The solubility was > 100 mg/mL.

Question: What about the “Dose producing peak levels of yawning” value (dopamine D3 receptor) of the same compound?
Answer: The value was 1.0 mg/kg.

Question: Which “Selectivity for D3 over D2” value (D3 receptor [1]) does the source give for `Cc1nc(-c2cccc(C(=O)NC3CCC(CCN4CCc5ccc(S(C)(=O)=O)cc5CC4)CC3)c2)no1` (centres unmarked) [Compound 5] here?
Answer: The value was ≤ 100 fold.

Question: For `CCCN(CC[C@H]1CC[C@H](NC(=O)/C=C/c2ccccc2)CC1)[C@H]1CCc2nc(N)sc2C1` [Compound 10], which Aqueous solubility [2] is on record?
Answer: The Aqueous solubility was > 50 mg/mL.

Question: With `CCCN(CC[C@]1(O)C[C@H](NC(=O)c2ccc3ccccc3c2)C1)[C@H]1CCc2nc(N)sc2C1` [Compound 17] as the compound, how does the “Binding to human D1 receptor” value (human D1 receptor) read?
Answer: The value was “no detectable binding”.

Question: What about the solubility (Aqueous solubility) of the same compound?
Answer: The solubility was > 100 mg/mL.

Question: What about the “Effect on core body temperature” value (D2 receptor; 3.2 mg/kg) of the same compound?
Answer: The value was “no significant effect”.

Question: And the “Effect on core body temperature” value (D2 receptor; 10 mg/kg)?
Answer: Its value is “significant but a modest effect”.

Question: What about the “Decrease in core body temperature” value (D2 receptor; 10 mg/kg) of the same compound?
Answer: Its value is “approximately 0.75 °C”.

Question: What about the “Dose at onset of modest D2 agonist activity” value (D2 receptor) of the same compound?
Answer: Its value is 10 mg/kg.

Question: And the “Dose producing peak levels of yawning” value (dopamine D3 receptor)?
Answer: The value was 1.0 mg/kg.

Question: What about the “High doses at which D2 agonist effects may be observed” value (dopamine D3 receptor) of the same compound?
Answer: The value was ~ 10.0 mg/kg.

Question: What about the “Dose active at the D3 receptor (significant yawning activity)” value (dopamine D3 receptor; lowest active dose) of the same compound?
Answer: The value was 0.01 mg/kg.

Question: Which “Selectivity over the D2 receptor” value (D3 receptor [1]) does the source give for `CCCN1CCC[C@@H]2Cc3n[nH]cc3C[C@H]21` [Compound 2, Quinpirole] here?
Answer: Its value is < 100 fold.

Question: With `CCCN(CCC)C1CCc2ccc(O)cc2C1` (centres unmarked) [Compound 3, 7-hydroxy dipropylaminotetralin] as the compound, how does the “Selectivity over the D2 receptor” value (D3 receptor [1]) read?
Answer: Its value is < 100 fold.

Question: With `N#Cc1ccc2c(c1)CCN(CCC1CCC(NC(=O)c3ccnc4ccccc34)CC1)C2` (centres unmarked) [Compound 4] as the compound, how does the “Selectivity for D3 over D2” value (D3 receptor [1]) read?
Answer: Its value is ≤ 100 fold.

Question: With `CCCN(CC[C@H]1CC[C@H](NC(=O)c2ccc3ccccc3c2)CC1)[C@H]1CCc2nc(N)sc2C1` [Compound 11] as the compound, how does the Aqueous solubility [2] read?
Answer: The Aqueous solubility was > 50 mg/mL.

Question: Which results are given for `CCCN[C@H]1CCc2nc(N)sc2C1` [Compound 1, Pramipexole]?
Answer: Decrease in core body temperature (D2 receptor; 0.32 mg/kg): approximately 0.75 °C; Effect on core body temperature (D2 receptor; doses of 0.32 and 1.0 mg/kg): significant decreases; Dose at onset of modest D2 agonist activity (D2 receptor): 0.32 mg/kg; High doses at which D2 agonist effects may be observed (dopamine D3 receptor): ~ 1.0 mg/kg

Question: For `CCCN(CC[C@H]1C[C@@H](NC(=O)c2ccc3ccccc3c2)C1)[C@H]1CCc2nc(N)sc2C1` [Compound 15], which “Selectivity D1-like/D3” value (D3 receptor [3]) is on record?
Answer: Its value is 8,822.

Question: With `CCCN(CC[C@]1(O)CC[C@H](NC(=O)c2ccc3ccccc3c2)CC1)[C@H]1CCc2nc(N)sc2C1` [Compound 13] as the compound, how does the “Selectivity D1-like/D3” value (D3 receptor [3]) read?
Answer: Its value is 15,115.

Question: Which “Selectivity D1-like/D3” value (D3 receptor [3]) does the source give for `CCCN(CC[C@]1(O)CC[C@@H](NC(=O)c2ccc3ccccc3c2)CC1)[C@H]1CCc2nc(N)sc2C1` [Compound 12] here?
Answer: Its value is 7,373.

Question: Which “Selectivity D1-like/D3” value (D3 receptor [3]) does the source give for `CCCN(CC[C@H]1C[C@H](NC(=O)c2ccc3ccccc3c2)C1)[C@H]1CCc2nc(N)sc2C1` [Compound 14] here?
Answer: Its value is 14,848.

Question: With `OC1(c2ccc(Cl)cc2)CCN(Cc2c[nH]c3ccccc23)CC1` [L-741,626] as the compound, how does the “Effect of antagonist on hypothermia induced by compound 17” value (D2 receptor; 10 mg/kg compound 17) read?
Answer: Its value is “did not have a significant effect”.

Question: And the “Effect of antagonist on hypothermia induced by pramipexole” value (D2 receptor; in vivo, 0.32 mg/kg)?
Answer: Its value is “significantly reversed”.

Question: What about the “Effect of antagonist on yawning induced by lower agonist doses” value (dopamine D3 receptor; pramipexole 0.1 mg/kg and 17 1.0 mg/kg) of the same compound?
Answer: Its value is “failed to modulate”.
